Measured values: publication PMC9193972, “Candidate Chemosensory Genes Identified in the Adult Antennae of Sympiezomias velatus and Binding Property of Odorant-Binding Protein 15” (Frontiers in Physiology, 2022)

How the values were obtained:
[1] = target: recombinant SvelOBP15; experiment: Fluorescence competitive binding assay with 1-NPN as fluorescent reporter; set-up: species or system Sympiezomias velatus; details: for Ki: calculated from IC50, mean ± SE, read-out: Ki (dissociation constant); for Ki / IC50: 1-NPN 2 μmol/L; for IC50: competitor 2 to 20 μmol/L, concentration halving the fluorescence of 1-NPN; for binding to SvelOBP15 (in words): competitive binding, competitor up to 20 μmol/L
Description: The whole ORF of SvelOBP15 was successfully validated by RT-PCR and Sanger sequencing and then synthesized (without the signal peptide-encoding region) by Sangon Biotech (Shanghai, China). It was first cloned into the pGEM-T cloning vector (Promega, Madison, United States) and then subcloned into the expression vector pET-30a(+) (Novagen, Darmstadt, Germany). Recombinant SvelOBP15 was expressed in Escherichia coli Transetta (DE3) following induction with 0.5 mM isopropyl-b-D-thiogalactopyranoside (IPTG) after the culture reached an OD600 of 0.4–0.6. Incubation was continued at 37°C with shaking at 220 rpm for an additional 6 h. […] Denaturation and renaturation were performed following previously reported methods ([Liu et al., 2012]). The protein was purified using a HisTrap HP prepacked column (GE Healthcare, Pittsburgh, United States) according to the manufacturer’s instructions, and recombinant enterokinase (rEK) (GenScript Biology Company, Nanjing, China) was used to remove the His-tag. After running the digested protein back through the HisTrap HP prepacked column, the tag-free protein was obtained in the flow-through fraction. Proteins were visualized at all stages of purification by SDS-PAGE.
(§1) Fluorescence competitive binding assays were performed as reported previously ([Liu et al., 2015]). This assay was conducted on a Hitachi F-7000 fluorescence spectrophotometer with a 1-cm light path quartz cuvette and 10-nm slits for both excitation and emission. The excitation wavelength was 337 nm, and the emission spectrum was recorded between 390 and 460 nm. First, to determine the binding affinities of N-phenyl-1-naphthylamine (1-NPN) to OBP15, the fluorescence intensity values at maximum fluorescence emissions were plotted against the free ligand concentration by titrating increasing concentrations of 1-NPN. The binding curves were linearized using Scatchard plots. Next, competitive binding assays of OBP15 to 33 chemicals (Supplementary Table S2) of different structural characteristics were carried out using 1-NPN as the fluorescent reporter at a concentration of 2 μmol/L, whereas the concentration of each competitor varied from 2 to 20 μmol/L. These chemicals included the volatile components of host plants such as peanut, elm, maize, cotton, etc. ([Hammack, 2001]; [Cardoza et al., 2002]; [Ngumbi et al., 2009]; [Cheng et al., 2010]) and aggregation pheromone components of curculionids ([Gries et al., 1993]; [Hallett et al., 1993]; [Eller et al., 1994]; [Szendrei et al., 2011]). Chemicals were purchased from Sigma-Aldrich (St. Louis, United States) (purity >95% or 90%). Based on the assumption that the activity of proteins was 100% with a saturation stoichiometry of 1:1 (protein: ligand), the dissociation constants (Ki) of the competitors were calculated from the IC50 values (the concentrations of the ligands halving the fluorescence of 1-NPN) using the following equation:
Ki = [IC50]/(1 + [1-NPN]/K1-NPN) ([Ban et al., 2003]).Where [1-NPN] is the free concentration of 1-NPN and K1-NPN is the dissociation constant of the complex protein/1-NPN.
Ki values of various compounds (mean ± SE) were subjected to one-way ANOVA followed by Tukey post hoc test for mean comparison using SPSS Statistics 20.0 (SPSS Inc., Chicago, United States).

[2] = target: recombinant SvelOBP15; experiment: 1-NPN titration (binding curve, Scatchard plot); set-up: species or system Sympiezomias velatus; details: titration with increasing 1-NPN, read-out: dissociation constant of 1-NPN
Description: as §1, with “Based on the assumption that the activity of proteins was 100% with a saturation stoichiometry of 1:1 (protein: ligand), the dissociation constants (Ki) of the competitors were calculated from the IC50 values (the concentrations of the ligands halving the fluorescence of 1-NPN) using the following equation:” left out

[3] = tested on: AquaOBP4; set-up: method as in Wang et al., 2017; details: ref Wang et al., 2017; cited from earlier work
[4] = tested on: SzeaOBP28; set-up: method as in Zhang Y. et al., 2019; details: ref Zhang Y. et al., 2019; cited from earlier work

Compound	IC50 [1]	also measured
C=CC(C)(O)CCC=C(C)CCC=C(C)C (mixture of isomers) [Nerolidol]		Ki [1]: 12.9 ± 0.43 µM
Cc1cccc2ccccc12 [1-Methylnaphthalene]	> 20 µM	
c1ccc(Nc2cccc3ccccc23)cc1 [1-NPN, N-phenyl-1-naphthylamine]		Kd [2]: 4.68 ± 0.16 µM
C=CC(O)CCCCC (stereo not shown) [1-Octen-3-ol]	> 20 µM	
CC(=O)c1ccc(C)c(C)c1 [3',4'-Dimethylacetophenone]	> 20 µM	
CCCCC(O)C(C)CC (stereo not shown) [3-Methyl-4-octanol]	> 20 µM	
CCc1ccc(C(C)=O)cc1 [4-Ethylacetophenone]	> 20 µM	
CCCCC(O)C(C)CCC (stereo not shown) [4-Methyl-5-nonanol]	> 20 µM	
CCCCC(=O)C(C)CCC (stereo not shown) [4-Methyl-5-nonanone]	> 20 µM	
O=C1CCCC1C1CCCC1 (stereo not shown) [(1,1`-Bicyclopentyl)-2-one]	> 20 µM	
C=C1CC/C=C(\C)CC[C@@H]2[C@@H]1CC2(C)C [(-)-trans-Caryophyllene]	> 20 µM	
CC(C)=CCC/C(C)=C/CO [(E)-3,7-Dimethyl-2,6-octadien-1-ol]	> 20 µM	
CC(C)=CCC/C(C)=C/CC/C(C)=C/CO [(E,E)-Farnesol]	9.26 ± 0.43 µM	Ki [1]: 7.36 ± 0.36 µM
O=Cc1ccccc1 [Benzalehyde]	> 20 µM	
CC(C)COC(=O)CCCCC(=O)OCC(C)C [Diisobutyl adipate]	> 20 µM	
CC(C)COC(=O)c1ccccc1C(=O)OCC(C)C [Diisobutyl phthalate]	15.8 ± 0.42 µM	Ki [1]: 12.6 ± 0.34 µM; binding to AquaOBP4 (in words) [3]: weakly bound
CCCCCCCCCCCC [Dodecane]	> 20 µM	binding to SvelOBP15 (in words) [1]: cannot be bound
CC(C)=CCC/C(C)=C/C(=O)O [Geranic acid]	> 20 µM	

Compound	IC50 [1]	also measured
C=C(C)[C@H]1CC=C(C)CC1 [Limonene]	14.7 ± 0.53 µM	Ki [1]: 11.7 ± 0.47 µM
C=CC(C)(O)CCC=C(C)C (stereo not shown) [Linalool]	> 20 µM	
COC(=O)c1ccccc1O [Methyl salicylate]	> 20 µM	
CCCCCCCCC=O [Nonanal]	> 20 µM	
CCCCCCCCCCCCCCCC(=O)O [Palmitic acid]	> 20 µM	
CCCCCCCCCCCCCCC [Pentadecane]	> 20 µM	binding to SvelOBP15 (in words) [1]: cannot be bound
CCCCCCCCCCCCCC [Tetradecane]	> 20 µM	binding to SvelOBP15 (in words) [1]: cannot be bound
CC/C=C\CCO [Z-3-hexen-1-ol]	> 20 µM	
COCCOC(=O)c1ccccc1C(=O)OCCOC [bis (2-methoxyethyl) phthalate]		binding to SzeaOBP28 (in words) [4]: exhibited a binding affinity
CC/C=C\CCOC(C)=O [cis-3-Hexenyl acetate]	> 20 µM	
CCCCCCCCCCCCCCCC [n-Hexadecane]	> 20 µM	binding to SvelOBP15 (in words) [1]: cannot be bound
CCC/C=C/COC(C)=O [trans-2-Hexenyl acetate]	> 20 µM	
CCC/C=C/C=O [trans-2-Hexenyl aldehyde]	> 20 µM	
C=C/C(C)=C/C/C=C(\C)CCC=C(C)C [α-Farnesene]	> 20 µM	
C=C/C(C)=C/CC=C(C)C [β-Ocimene]	> 20 µM	
(+)-α-Pinene	> 20 µM	
(+)-β-Pinene	> 20 µM	
